Results from US20260265280A1, “Prevention/Treatment of Ischemic Reperfusion Injury” (Rev Therapeutics, priority 2023, published 2026).
≈ marks a conversion by molar mass, not a printed value. Where “and” joins values, the source holds several entries; their conditions need not be identical. Equal values may be shown once. Marks after values point to notes of the source that are not given here. Blank lines part the entries; values can stand above or below the compound they belong to.

Experiments:
[1] = Thermodynamic solubility assay (shake flask, HPLC-UV) in PBS; format: physicochemical; conditions: for solubility thermodynamic at 24 h: 25 °C, aqueous buffer, thermodynamic from solid
Procedure: Solubility Study: The thermodynamic solubility assay employed was the shake flask method followed by HPLC analysis. The method prepared a saturated solution of the compound, followed by an assay of the solution using HPLC and UV detection. […] About 18 mg compound powder was weighed and placed in a 2 mL glass vial, then PBS buffer was introduced into the vial to obtain a 30-60 mg/mL target concentration. This solution was vortexed for 2 minutes. The solutions were incubated and shook on an orbital shaker for 24 hr at room temperature (25±2° C.). About 500 μL solubility solution was transferred into a new MultiScreen filter plate (Membrane of polycarbonate), filtered by millipore vacuum manifold, and collected in the filtrate as the TS solution. The filtrate was diluted with PBS buffer by a factor of 20 fold to make it diluent. Three UV standard solutions (20, 200, 2000 μg/mL) were injected into HPLC from low to high concentration, followed by testing of the diluent. Testing samples were injected in duplicate. The filtrate was analyzed by HPLC equipped with UV, and the solubility was calculated based on acquired peak areas and dilution factors with a standard external method.

[2] = In vivo rat pharmacokinetic studies (cleavage of compounds into compound Z); conditions: for Compound Z Present in Plasma at 2 hr After i.p. dose: i.p. dose of compound Qx
Procedure: Rat pharmacokinetic study samples were used for PK characterization. Male Sprague-Dawley rats weighing 150-300 g were intraperitoneal (ip), intravenous (i.v.) dosed formulated in PBS, pH 7.4. The blood samples at several times post dosing were collected and advanced to plasma preparation with K2EDTA as an anticoagulant.
The blank plasma samples used for the PK characterization control were prepared from undosed rat groups. After IV administration, the amount of parent compound remaining at 0.5 hours after dosing was used as a measure of the cleavage rate. After IP administration, the amount of parent compound remaining at 2 hours after dosing was used as a measure of the cleavage rate. We sought compounds with >90% cleavage.

[3] = system: kidney ischemia-reperfusion injury; conditions: oral; Grynberg et al.; cited from earlier work
cJun phosphorylation = conditions: human skin; cited from earlier work
[4] = system: kidney ischemia-reperfusion injury; assay: Rat bilateral short-warm kidney ischemia-reperfusion injury (IRI / AKI) system; format: in vivo, Male outbred Sprague-Dawley rats; conditions: oral 103 mg/kg
Procedure: Brief description of AKI Study: The study examined rats given oral compound Q8 three times at −1 hour, +10 hours, and 24 h post-lesion, or nine times over four days, at −1 hr, +10 hours and every morning and evening. The dose chosen was 103 mg/kg (0.134 mmol/kg). Control groups include a sham operation group receiving drug vehicle, peritoneum open but no ligature application to the kidney artery. A vehicle group in which the artery ligature was applied served as the lesion group. […] This chosen amount is also between the IC95 and the IC50 inhibition of Jnk activity in cell extracts and human PBMCs (Krenitsky et al. Bioorganic & Medicinal Chemistry Letters, 22(3), pp. 1433-1438). It is also similar to the oral Cavg exposure of compound Z at 60 mg/kg, which is an effective dose of compound Z in rat models of AKI (Grynberg et al. Am J Pathol 191:817-828, 2021).
Rat bilateral short-warm kidney ischemia-reperfusion injury (“IRI”) system: Male outbred Sprague-Dawley rats (approximately 300 g from the Monash Animal Research Platform), six/group, were anesthetized using ketamine/xylazine, and surgery performed with both renal pedicles clamped for 25 minutes (ischemia) then released (reperfusion) as previously described (Grynberg et al. Am J Pathol 191:817-828, 2021). […]
Staining used rabbit monoclonal antibodies recognizing collagen I (E8F4L, 1 in 400 dilutions; Cell Signaling Technology, Danvers, MA, USA), followed by biotinylated […] (BA-400, 1 in 500 dilutions; Thermo Fisher, Waltham, MA, USA), and the VECTASTAIN® Elite® ABC-HRP Kit (PK-6100). The interstitial collagen I deposition area was assessed in the outer medulla and cortex by image analysis, avoiding medium and large arteries, using cellSens software V1.18 (Olympus, Notting Hill, Victoria, Australia) as previously described (Leong et al. Toxins 13:700, 2021). […]
Statistical Analysis: Data are shown as means±1 SD. Data were analyzed by one-way analysis of variance with the Tukey multiple comparison tests using GraphPad Prism 9.0 software (GraphPad Software, San Diego, CA).

[5] = PBS buffer, PBS pH 7.4, shaken 24 hr at room temperature (25±2° C.)
[6] = studied at 1 mg/kg in PBS, linearly scaled to 2 mg/kg equivalent dose
[7] = PBS pH 7.4, shaken 24 hr at room temperature (25±2° C.)

Compound: [4-[[9-[(3S)-Tetrahydro furan-3-yl]-8-(2,4,6-trifluoroanilino)purin-2-yl]amino]cyclohexyl] disodium phosphate [Compound Q7]
compound still present at 2 hrs post-dosing ([2]; 2 hr post-dosing): 30%
Compound Z Present in Plasma at 2 hr After i.p. dose ([2]; studied at 2 mg/kg in PBS): 83.5 ng/mL
Compound Qx Present in Plasma at 2 hr After i.p. dose ([2]; studied at 2 mg/kg in PBS): 36 ng/mL
Compound Z Present in Plasma at 0.5 hr After i.v. dose ([2]; i.v. dose of compound Qx, studied at 1 mg/kg in PBS, linearly scaled to 2 mg/kg equivalent dose): 232 ng/mL
Compound Qx Present in Plasma at 0.5 hr After i.v. dose [2, 6]: 13 ng/mL

Compound: O=P([O-])([O-])OP(=O)([O-])OC1CCC(Nc2ncc3nc(Nc4c(F)cc(F)cc4F)n([C@H]4CCOC4)c3n2)CC1.[Na+].[Na+].[Na+] (stereo partly drawn) [Compound Q9, [Disodiooxyphosphoryloxy-[4-[[9-[(3S)-tetrahydrofuran-3-yl]-8-(2,4,6-trifluoroanilino)purin-2-yl]amino]cyclohexoxy]phosphoryl]oxysodium]
solubility thermodynamic at 24 h [1, 7]: 19.4 mg/mL
Compound Qx Present in Plasma at 2 hr After i.p. dose ([2]; studied at 2 mg/kg in PBS): BQL
Compound Qx Present in Plasma at 0.5 hr After i.v. dose [2, 6]: BQL

Compound: O[C@H]1CC[C@H](Nc2ncc3nc(Nc4c(F)cc(F)cc4F)n([C@H]4CCOC4)c3n2)CC1 [Z, 4-[[9-[(3S)-tetrahydrofuran-3-yl]-8-(2,4,6-trifluoroanilino)purin-2-yl]amino]cyclohexanol]
effective dose in rat models of AKI [3]: 60 mg/kg
plasma concentration that achieved efficacy (suppression of cJun phosphorylation) (cJun phosphorylation): 3.4 uM and 1560 ng/mL
solubility thermodynamic at 24 h [1, 5]: 0.0606 mg/mL (≈ 135 µM)

Compound: O=P([O-])([O-])OCn1/c(=N\c2c(F)cc(F)cc2F)n([C@H]2CCOC2)c2nc(NC3CCC(O)CC3)ncc21.[Na+].[Na+] (stereo partly drawn) [Compound Q8, [[(8Z)-2-[(4-hydroxycyclohexyl)amino]-9-[(3S)-tetrahydrofuran-3-yl]-8-(2,4,6-trifluorophenyl)imino-purin-7-yl]methoxy-sodiooxy-phosphoryl]oxysodium]
reduction of fibrosis component Coll histological staining ([4]; D21 post-lesion): 73%
reduction of tubular damage ([4]; Day 7 post-lesion, PAS stained sections, outer medulla): 65%
reduction of serum/plasma creatinine levels (kidney dysfunction) ([4]; three doses or nine doses over four days, vs. 1D vehicle): 87-88%
improvement in solubility over known compound Z ([1]; PBS): 751 fold
solubility thermodynamic at 24 h [1, 5]: 45.6 mg/mL
Compound Qx Present in Plasma at 2 hr After i.p. dose ([2]; studied at 29.8 mg/kg in PBS, linearly scaled to 2 mg/kg equivalent dose): 12^# ng/mL
concentration at 0.5 h ([2]; male, Sprague-Dawley, plasma, intravenous, 1 mg/kg): 0.021 µg/mL

Compound: CCOC(=O)OC1CCC(Nc2ncc3nc(Nc4c(F)cc(F)cc4F)n([C@H]4CCOC4)c3n2)CC1 (stereo partly drawn) [Compound Q13, Ethyl [4-[[9-[(3S)-tetrahydrofuran-3-yl]-8-(2,4,6-trifluoroanilino)purin-2-yl]amino]cyclohexyl] carbonate]
solubility thermodynamic at 24 h [1, 5]: < 0.02 mg/mL

Compound: Trimethyl-[2-oxo-2-[4-[[9-[(3S)-tetrahydrofuran-3-yl]-8-(2,4,6-trifluoroanilino)purin-2-yl]amino]cyclohexoxy]ethyl]ammonium [Compound Q15]
Thermodynamic Solubility in PBS [1, 7]: 17.34 mg/mL
Compound Z Present in Plasma at 2 hr After i.p. dose ([2]; studied at 2 mg/kg in PBS): 26.5 ng/mL
Compound Qx Present in Plasma at 2 hr After i.p. dose ([2]; studied at 2 mg/kg in PBS): 125 ng/mL

The next lines start with the values.

solubility thermodynamic at 24 h [1, 5]: 0.0752 mg/mL
Compound: CC(=O)O[C@H]1CC[C@H](Nc2ncc3nc(Nc4c(F)cc(F)cc4F)n([C@H]4CCOC4)c3n2)CC1 [Compound Q10, [4-[[9-[(3S)-Tetrahydrofuran-3-yl]-8-(2,4,6-trifluoroanilino)purin-2-yl]amino]cyclohexyl] acetate]

solubility thermodynamic at 24 h [1, 5]: 0.114 mg/mL
Compound: CC(=O)OCn1/c(=N\c2c(F)cc(F)cc2F)n([C@H]2CCOC2)c2nc(N[C@H]3CC[C@H](O)CC3)ncc21 [Compound Q16, [(8Z)-2-[(4-hydroxycyclohexyl)amino]-9-[(3S)-tetrahydrofuran-3-yl]-8-(2,4,6-trifluorophenyl)imino-purin-7-yl]methyl acetate]

solubility thermodynamic at 24 h [1, 5]: < 0.02 mg/mL
Compound: CN(C)C(=O)O[C@H]1CC[C@H](Nc2ncc3nc(Nc4c(F)cc(F)cc4F)n([C@H]4CCOC4)c3n2)CC1 [Compound Q14, [4-[[9-[(3S)-tetrahydrofuran-3-yl]-8-(2,4,6-trifluoroanilino)purin-2-yl]amino]cyclohexyl] N,N-dimethylcarbamate]

solubility thermodynamic at 24 h [1, 5]: < 0.02 mg/mL
Compound: CCOC(=O)n1/c(=N\c2c(F)cc(F)cc2F)n([C@H]2CCOC2)c2nc(N[C@H]3CC[C@H](O)CC3)ncc21 [Compound Q11]

solubility thermodynamic at 24 h [1, 5]: 29.6 mg/mL
concentration at 2 h ([2]; male, Sprague-Dawley, plasma, ip, 2 mg/kg): 0.214 µg/mL
Compound: C[N+](C)(C)CCOC(=O)O[C@H]1CC[C@H](Nc2ncc3nc(Nc4c(F)cc(F)cc4F)n([C@H]4CCOC4)c3n2)CC1 [Compound Q12, trimethyl-[2-[4-[[9-[(3S)-tetrahydrofuran-3-yl]-8-(2,4,6-trifluoroanilino)purin-2-yl]amino]cyclohexoxy]carbonyloxyethyl]ammonium]
